The results in this text go back to ChEMBL document CHEMBL1143097, “Allosteric inhibitors of Akt1 and Akt2: a naphthyridinone with efficacy in an A2780 tumor xenograft model” (Bioorg Med Chem Lett, 2008).

Active and inactive are the calls of the source. No cut-off for these calls is given here.

For orientation: IC50 means the concentration at which inhibition is half-maximal. In general, inhibition in vivo refers to the share of the control response that was lost under treatment. As a reminder, the clearance is the rate of elimination divided by the concentration. The term logP denotes a log measure of how a compound divides between an organic and an aqueous phase. A word on the half-life: it is how long it takes for the measured level to halve. One may read the logD as the decadic logarithm of the distribution of all forms, ionised or not, between an organic phase and buffer at a given pH.

Data set [1] deals with T1, RAC-beta serine/threonine-protein kinase (Homo sapiens, UniProt P31751). The data set can be described thus: Inhibition of Akt2 by cell-based assay.
Data set [2] is described as follows: Inhibition of SGK.
Data set [3] has as its target T1, RAC-beta serine/threonine-protein kinase. The data set can be described thus: Inhibition of Akt2.
The nature of data set [4]: Inhibition of PKC.
For data set [5], the target named is T2, RAC-alpha serine/threonine-protein kinase (Homo sapiens, UniProt P31749). The data set can be described thus: Inhibition of Akt1 by cell-based assay.
Data set [6] has as its target T2, RAC-alpha serine/threonine-protein kinase. The data set can be described thus: Inhibition of Akt1.
A short description of data set [7]: Inhibition of PKA.
The subject of data set [8] is Mus musculus. The data set can be described thus: Inhibition of AKT2 in A2780 cells xenografted mouse lung tissue at 50 mg/kg, twice daily after 2 hrs by IP kinase assay. Type of data set: functional. The note with it: route intraperitoneal.
Data set [9] is described as follows: Clearance in rat. It counts as ADME, organism-based. The settings on record: in vivo.
Data set [10] concerns Mus musculus. The data set can be described thus: Inhibition of AKT1 in A2780 cells xenografted mouse tumor tissue at 50 mg/kg, twice daily after 2 hrs by IP kinase assay. It counts as functional. The settings on record: route intraperitoneal.
For data set [11], the system named is Mus musculus. The data set can be described thus: Inhibition of Akt2 in mouse lung at 50 mg/kg, ip administered three times a day after 24 hrs by IP kinase assay. Type of data set: functional. Also on record: scale not given: the % may be the effect or the level left. The note with it: route intraperitoneal.
Data set [12] has as its system Mus musculus. The data set can be described thus: Inhibition of Akt1 in mouse lung at 50 mg/kg, ip administered three times a day after 16 hrs by IP kinase assay. It counts as functional. More on the design: scale not given: the % may be the effect or the level left. The settings on record: route intraperitoneal.
Data set [13] can be described thus: Drug concentration in mouse blood at 50 mg/kg, ip administered three times a day after 24 hrs. Type of data set: ADME, organism-based. The settings on record: whole blood, read-out: Drug uptake. Also on record: dose 50 mg/kg, route intraperitoneal.
Data set [14] deals with Mus musculus. The data set can be described thus: Inhibition of Akt1 in mouse lung at 50 mg/kg, ip administered three times a day after 24 hrs by IP kinase assay. It counts as functional. Also on record: scale not given: the % may be the effect or the level left. The note with it: route intraperitoneal.
In another data set the test system is A2780. The data set can be described thus: Antitumor activity in human A2780 cells xenografted mouse assessed as decrease in tumor weight at 50 mg/kg, sc administered three times a day twice a week for five cycles. Type of data set: functional, organism-based. Also on record: dose 50 mg/kg. (In general: A xenograft is tissue or cells of one species grown in another, often human tumour cells in immunodeficient mice.)

In data set [15] the test system is Mus musculus. The data set can be described thus: Inhibition of Akt2 in mouse lung at 50 mg/kg, ip administered three times a day after 10 hrs by IP kinase assay. Type of data set: functional. More on the design: scale not given: the % may be the effect or the level left. The note with it: route intraperitoneal.
Data set [16] in a line: Partition coefficient, log P of the compound. Type of data set: physicochemical. The settings on record: octanol/water.
For another data set, the species on record is Homo sapiens. The data set can be described thus: Protein binding in human plasma. The settings on record: read-out: PB (converted).
A short description of data set [17]: Drug concentration in mouse blood at 50 mg/kg, ip administered three times a day after 10 hrs. More on the design: dose 50 mg/kg, route intraperitoneal. The note with it: whole blood, read-out: Drug uptake. Type of data set: ADME, organism-based.
Data set [18] relates to Mus musculus. The data set can be described thus: Inhibition of AKT1 in A2780 cells xenografted mouse lung tissue at 50 mg/kg, twice daily after 2 hrs by IP kinase assay. It counts as functional. The settings on record: route intraperitoneal.
Data set [19] relates to Mus musculus. The data set can be described thus: Inhibition of Akt2 in mouse lung at 50 mg/kg, ip administered three times a day after 16 hrs by IP kinase assay. Type of data set: functional. More on the design: scale not given: the % may be the effect or the level left. The settings on record: route intraperitoneal.
Data set [20] is described as follows: Drug concentration in mouse blood at 50 mg/kg, ip administered three times a day after 16 hrs. It counts as ADME, organism-based. Also on record: dose 50 mg/kg, route intraperitoneal. The settings on record: whole blood, read-out: Drug uptake.
Data set [21] has as its target Voltage-gated inwardly rectifying potassium channel KCNH2 (Homo sapiens, UniProt Q12809). The data set can be described thus: Inhibition of human ERG.
For data set [22], the target named is RAC-gamma serine/threonine-protein kinase (Homo sapiens, UniProt Q9Y243). The data set can be described thus: Inhibition of Akt3.
The subject of data set [23] is Mus musculus. The data set can be described thus: Inhibition of Akt1 in mouse lung at 50 mg/kg, ip administered three times a day after 10 hrs by IP kinase assay. The note with it: route intraperitoneal. More on the design: scale not given: the % may be the effect or the level left. Type of data set: functional.
Data set [24] relates to Mus musculus. The data set can be described thus: Inhibition of AKT2 in A2780 cells xenografted mouse tumor tissue at 50 mg/kg, twice daily after 2 hrs by IP kinase assay. It counts as functional. The note with it: route intraperitoneal.
Data set [25] is described as follows: Half life in rat. Type of data set: ADME, organism-based. The settings on record: in vivo.
A short description of data set [26]: Distribution coefficient, log D of the compound. Type of data set: physicochemical. The note with it: octanol/water.

T2 sequence (P31749 whole entry): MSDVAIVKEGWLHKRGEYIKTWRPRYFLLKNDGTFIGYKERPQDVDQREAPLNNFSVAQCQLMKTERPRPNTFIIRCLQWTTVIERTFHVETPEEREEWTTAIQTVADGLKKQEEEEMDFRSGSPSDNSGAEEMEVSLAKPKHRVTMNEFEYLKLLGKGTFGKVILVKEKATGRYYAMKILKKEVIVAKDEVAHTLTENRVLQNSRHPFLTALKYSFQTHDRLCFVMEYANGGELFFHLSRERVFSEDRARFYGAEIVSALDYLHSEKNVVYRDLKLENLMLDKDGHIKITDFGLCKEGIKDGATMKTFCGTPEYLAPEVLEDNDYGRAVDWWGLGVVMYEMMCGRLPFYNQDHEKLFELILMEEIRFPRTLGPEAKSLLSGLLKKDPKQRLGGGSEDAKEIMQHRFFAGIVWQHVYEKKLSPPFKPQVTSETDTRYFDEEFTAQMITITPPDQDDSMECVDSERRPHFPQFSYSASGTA
T1 sequence (P31751 whole entry): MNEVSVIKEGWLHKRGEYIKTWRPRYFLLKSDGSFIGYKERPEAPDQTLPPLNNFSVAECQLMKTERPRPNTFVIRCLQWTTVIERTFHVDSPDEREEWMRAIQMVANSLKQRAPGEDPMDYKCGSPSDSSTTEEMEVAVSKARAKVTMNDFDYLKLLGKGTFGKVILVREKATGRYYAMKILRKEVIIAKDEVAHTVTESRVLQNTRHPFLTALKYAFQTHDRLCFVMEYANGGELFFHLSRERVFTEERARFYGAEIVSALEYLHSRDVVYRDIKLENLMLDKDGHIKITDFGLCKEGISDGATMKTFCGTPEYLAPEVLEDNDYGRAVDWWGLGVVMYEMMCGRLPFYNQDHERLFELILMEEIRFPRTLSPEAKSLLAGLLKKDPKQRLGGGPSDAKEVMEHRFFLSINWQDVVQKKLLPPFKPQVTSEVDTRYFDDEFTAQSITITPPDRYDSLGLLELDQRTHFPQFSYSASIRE
Chain of RAC-gamma serine/threonine-protein kinase (Q9Y243 whole entry): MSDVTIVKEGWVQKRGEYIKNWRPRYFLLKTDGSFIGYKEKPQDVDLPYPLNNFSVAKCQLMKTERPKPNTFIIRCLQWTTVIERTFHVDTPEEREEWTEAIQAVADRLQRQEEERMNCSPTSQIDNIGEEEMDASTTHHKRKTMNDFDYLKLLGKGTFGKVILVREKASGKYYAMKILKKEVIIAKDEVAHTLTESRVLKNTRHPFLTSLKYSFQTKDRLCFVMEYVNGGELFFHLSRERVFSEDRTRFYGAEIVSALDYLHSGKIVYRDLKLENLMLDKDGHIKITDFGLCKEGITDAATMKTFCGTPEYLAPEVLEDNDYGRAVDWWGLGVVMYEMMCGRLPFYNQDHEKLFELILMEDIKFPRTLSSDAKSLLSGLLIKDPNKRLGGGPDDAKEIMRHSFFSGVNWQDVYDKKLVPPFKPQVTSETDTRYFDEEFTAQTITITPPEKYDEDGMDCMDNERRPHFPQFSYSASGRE
Chain of Voltage-gated inwardly rectifying potassium channel KCNH2 (Q12809 whole entry): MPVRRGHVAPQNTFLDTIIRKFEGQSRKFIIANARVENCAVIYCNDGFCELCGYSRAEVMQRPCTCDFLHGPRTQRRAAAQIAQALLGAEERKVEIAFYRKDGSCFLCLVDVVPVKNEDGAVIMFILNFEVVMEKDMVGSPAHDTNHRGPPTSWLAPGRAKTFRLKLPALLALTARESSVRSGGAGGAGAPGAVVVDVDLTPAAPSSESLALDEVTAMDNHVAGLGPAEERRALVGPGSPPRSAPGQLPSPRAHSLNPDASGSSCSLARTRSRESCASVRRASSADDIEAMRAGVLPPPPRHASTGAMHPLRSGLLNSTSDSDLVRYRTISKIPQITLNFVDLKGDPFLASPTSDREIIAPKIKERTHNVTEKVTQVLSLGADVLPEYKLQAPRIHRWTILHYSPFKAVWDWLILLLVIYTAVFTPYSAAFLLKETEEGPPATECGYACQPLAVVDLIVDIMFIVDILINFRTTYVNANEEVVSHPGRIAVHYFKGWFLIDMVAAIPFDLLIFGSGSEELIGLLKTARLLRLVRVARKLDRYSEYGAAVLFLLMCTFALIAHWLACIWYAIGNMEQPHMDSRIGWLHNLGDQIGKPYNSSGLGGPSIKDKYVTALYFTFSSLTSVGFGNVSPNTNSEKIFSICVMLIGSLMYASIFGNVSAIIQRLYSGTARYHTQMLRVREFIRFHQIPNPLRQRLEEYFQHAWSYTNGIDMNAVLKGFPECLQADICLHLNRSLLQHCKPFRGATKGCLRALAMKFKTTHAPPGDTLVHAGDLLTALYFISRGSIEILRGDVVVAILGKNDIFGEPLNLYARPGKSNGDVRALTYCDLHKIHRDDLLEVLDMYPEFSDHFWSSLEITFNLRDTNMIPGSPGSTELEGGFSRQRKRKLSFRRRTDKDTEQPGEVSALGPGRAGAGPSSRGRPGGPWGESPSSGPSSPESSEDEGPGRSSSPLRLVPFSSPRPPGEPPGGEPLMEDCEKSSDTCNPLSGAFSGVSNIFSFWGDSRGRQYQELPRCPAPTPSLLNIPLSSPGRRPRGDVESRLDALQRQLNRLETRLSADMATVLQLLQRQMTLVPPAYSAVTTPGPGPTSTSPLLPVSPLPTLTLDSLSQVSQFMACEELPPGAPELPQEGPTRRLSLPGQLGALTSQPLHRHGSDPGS

Consider `c1ccc(-c2cc3cccnc3nc2-c2ccc(CN3CCC(c4n[nH]c(-c5ccccn5)n4)CC3)cc2)cc1`, for which the IC50 was 1080 nM in data set [1]; over 50000 nM in data set [2]; 220 nM in data set [3]; over 50000 nM in data set [4]; 83 nM in data set [5]; 45 nM in [6]. This compound also had an IC50 in [7] of over 50000 nM.
With `c1ccc(-c2cc3cccnc3nc2-c2ccc(CN3CCC(c4cc(-c5ccncc5)[nH]n4)CC3)cc2)cc1`, the IC50 in data set [1] was 1450 nM; in data set [2], over 50000 nM; in [3] it was 260 nM; in [4], over 50000 nM; in data set [5], 369 nM; in data set [6] it was 120 nM. The compound also displayed an IC50 in [7] of over 50000 nM.
Regarding `c1ccc(-c2cc3ncccc3nc2-c2ccc(CN3CCC(c4n[nH]c(-c5ccccn5)n4)CC3)cc2)cc1`, the IC50 in data set [1] is 1480 nM; in data set [2] it was over 50000 nM; in data set [3] it was 70 nM; in data set [4], over 50000 nM; in data set [5] it was 30 nM; in data set [6], 5.6 nM. The same compound came in with an IC50 in [7] of over 50000 nM.
Regarding `c1ccc(-c2cc(C3CCN(Cc4ccc(-c5nc6ncccc6cc5-c5ccccc5)cc4)CC3)n[nH]2)cc1`, the IC50 in [2] was over 50000 nM; in data set [3], 1600 nM; in data set [4] it was over 50000 nM; in data set [6], 470 nM; in [7], over 50000 nM.
Regarding `O=c1ccc(-c2cc(C3CCN(Cc4ccc(-c5nc6ncccc6cc5-c5ccccc5)cc4)CC3)n[nH]2)c[nH]1`, the half-inhibitory concentration (IC50) in data set [1] is 613 nM; in data set [2], over 50000 nM; in data set [3] it was 83 nM; in [4], over 50000 nM; in data set [5], 132 nM; in data set [6], 34 nM. Besides, the half-inhibitory concentration (IC50) in [7] is over 50000 nM.
Turning to `c1ccc(-c2cc3ccncc3nc2-c2ccc(CN3CCC(c4n[nH]c(-c5ccccn5)n4)CC3)cc2)cc1`, the IC50 in [1] was 981 nM; in [2], over 50000 nM; in [3] it was 160 nM; in data set [4] it was over 50000 nM; in data set [5], 31 nM; in data set [6], 21 nM. For the same compound, the IC50 in data set [7] is over 50000 nM.
Take `c1ccc(-c2cc3cccnc3nc2-c2ccc(CN3CCC(c4cc(-c5ccccn5)[nH]n4)CC3)cc2)cc1`: the IC50 in [1] is 995 nM; in data set [2], over 50000 nM; in data set [3], 280 nM; in data set [4] it was over 50000 nM; in data set [5], 149 nM; in data set [6] it was 44 nM. For the same compound, the concentration for half-maximal inhibition (IC50) in data set [7] is over 50000 nM.
As for `O=C1N=CC=C2N=C(c3ccc(CN4CCC(c5n[nH]c(-c6ccccn6)n5)CC4)cc3)C(c3ccccc3)=CC12` (configuration not stated), the inhibition in vivo at 50 mg/kg stood at 75% with Mus musculus [8], 95% with Mus musculus [10], 80% in the data set on Mus musculus [18] and 54% in the data set with Mus musculus [24]. Besides, the clearance in data set [9] was found to be 4.6 mL/min/kg. The Activity with Mus musculus [11] is 91%; in the data set on Mus musculus [12], 62%; in the data set on Mus musculus [14], 100%; in the data set with Mus musculus [15] it was 41%; in the data set on Mus musculus [19], 86%; with Mus musculus [23] it was 21%. For the same compound, the concentration at 24 h in data set [13] was 700 nM. Moreover, the IC50 in data set [1] was 266 nM; in [2] it was over 50000 nM; in data set [3], 42 nM; in [4], over 50000 nM; in data set [5], 16 nM; in data set [6], 3.5 nM. In addition, the values for the IC50 in data set [21], in [7] and in data set [22] were 5610 nM, over 50000 nM and 1900 nM, respectively. Moreover, the outcome in the data set on A2780 was Active. This compound also displayed a logP in data set [16] of 3.51. In addition, the fraction unbound in the data set listed under Homo sapiens is 0.027. Also, in data set [17], the concentration at 10 h was determined as 13000 nM. Besides, in [20], the concentration at 16 h was determined as 2600 nM. The compound further gave a half-life in [25] of 3.8 h.
`c1ccc(-c2cc3cccnc3nc2-c2ccc(CN3CCC(c4cc(-c5cccnc5)[nH]n4)CC3)cc2)cc1`: the IC50 was over 50000 nM in data set [2]; 900 nM in data set [3]; over 50000 nM in data set [4]; 250 nM in data set [6]; over 50000 nM in data set [7].
In [26], `c1ccc(-c2nc3ccccc3nc2-c2ccc(CN3CCC(c4cc(-c5ccncc5)[nH]n4)CC3)cc2)cc1` showed a logD of 2.71. Besides, the IC50 amounted to 1080 nM in data set [3], 75 nM in data set [6] and 11300 nM in [22].
Take `CCN(CC)CCNC(=O)c1ccc2nc(-c3ccccc3)c(-c3ccc(CN4CCC(n5c(=O)[nH]c6ccccc65)CC4)cc3)nc2c1`: the IC50 in data set [1] amounted to 730 nM; in [5], 527 nM.
`c1ccc(-c2cc3cnccc3nc2-c2ccc(CN3CCC(c4n[nH]c(-c5ccccn5)n4)CC3)cc2)cc1`: the half-inhibitory concentration (IC50) in data set [1] was 2680 nM; in [2], over 50000 nM; in data set [3], 210 nM; in data set [4] it was over 50000 nM; in [5], 21 nM; in [6], 7.4 nM. Moreover, in [7], the IC50 was over 50000 nM.
